Measurements: patent publication US6908930B2, “4-substituted 7-AZA-indolin-2-ones and their use as protein kinase inhibitors” (Sugen, Inc., priority 1999, dated 2005)

Key:
PDGFR = biological target: T1, PDGFR (Homo sapiens, UniProt P09619); assay: Assay for modulation of PDGFR activity (ELISA); format: biochemical; conditions: read-out: bio PDGFR IC50
T1 construct: expressed in transfected cells; host or cells: NIH3T3
Procedure: Using the following reagents, supplies, and methods, the ability of the compounds of the invention to modulate the in vitro activity of the PDGFR can be readily determined in an enzyme-linked immunosorbent assay (ELISA).
Monoclonal anti-PDGFR antibody (28D4C10) is stored at −20° C. in 50 mL tubes prior to use.
Lysates from PDGFR-β expressing NIH3T3 cells are obtained and stored at −80° C. in 1 mL aliquots. PDGFR-β expression in eukaryotic cells is well known in the art. Lysates are prepared by the following method. Place carrier dishes in ice trays, and after cooling, remove the media and replace with ice cold PBS. Remove the PBS and repeat. […] Take up lysate with a pipettor and add to a 30 mL centrifuge tube on ice. Vortex the tubes for 30-60 seconds and then centrifuge for 10 minutes at 7000 rpm in a J-20 rotor which has been precooled to below 0° C. Recover the supernatants and combine them in a 250 mL tube and place on ice. Perform protein determination to measure the total quantity of protein per mL of solution. Aliquot the lysate into 1 mL fractions and store at −80° C.
Coat Corning 96 well ELISA plates with 0.5 μg per well 28D4C10 antibody in a volume of 100 μl PBS overnight, at 4° C. and remove unbound antibody, 28D4C10, from wells by inverting plate to remove liquid. Wash 1× with distilled H2O by filling wells. Pat the plate on a paper towel to remove excess liquid.
Add 150 μL of Blocking Buffer to each well. Incubate for 30 minutes at room temperature, with shaking and wash plate 3× with deionized water, then once with TBST. Pat plate on a paper towel to remove excess liquid and bubbles
Dilute lysate in PBS (10 mg lysate/100 μL PBS). Add 100 μL of diluted lysate to each well. Shake at room temperature for 60 min. Wash plate 3× with deionized water, then once with TBST. Pat plate on a paper towel to remove excess liquid and bubbles.
Add 80 μL Kinase Buffer to ELISA plate containing captured PDGFR.
Dilute drugs/extracts 1:10 (unless specified otherwise) in TBS+10% DMSO in 96-well polypropylene plates. (i.e., 10 μL compound+90 μL (TBS+10% DMSO)). Add 10 μL diluted drugs/extracts to ELISA plate. […] Incubate for 30 minutes while shaking at room temperature.
After 30 minutes stop reaction with addition of 10 μL of 200 mM EDTA pH 8.0 for 20 mM final in well. Wash 4× with deionized water, twice with TBST.
Incubate 30-45 minutes at room temperature, with shaking. Wash plate 3× with deionized water, then once with TBST. Pat plate on a paper towel to remove excess liquid and bubbles.
Incubate 30 minutes at room temperature with shaking. Wash plate 3× with deionized water, then once with TBST. Pat plate on a paper towel to remove excess liquid and bubbles.
Add 100 μL of ABTS/H2O2 solution to each well. Incubate 10 to 30 minutes while shaking. Remove any bubbles. If necessary stop reaction with the addition of 100 μL of 0.2M HCl per well
Read assay on Dynatech MR7000 ELISA reader.

HER-2 = biological target: T2, HER-2 (Homo sapiens, UniProt P04626); assay: Assay for modulation of HER-2 activity in whole cells (ELISA); format: cell-based; conditions: EGFR/HER-2chimera/#T3-C7 cell lines, EGF stimulated; read-out: HER-2 kinase IC50
T2 construct: expressed in mouse 3T3 (clone C7) cells; P00533 (Epidermal growth factor receptor)
Procedure: Using the following reagents, supplies, and method, the ability of compounds of the invention to affect the activity of HER-2 in whole cells in an ELISA format can be assigned.
EGFR/HER-2chimera/#T3-C7 cell lines are used for this assay. Choose dishes having 80-90% confluence for the experiment. Collect cells by trypsinization and centrifuge at 1000 rpm at room temperature for 5 minutes.
Resuspend cells in starve medium and count with trypan blue. Only viability above 90% is acceptable. Seed cells in starve medium at a density of 2,500 cells per well, 90 μL per well, in a 96 well microtiter plate. Incubate seeded cells in 5% CO2 at 37° C. overnight. Start the assay two days after seeding.
Samples are diluted directly into a polypropylene plate containing starve-DMEM (non-sterile is okay). This dilution will be 1:10 or greater, depending on the samples being screened. The same amount of DMSO is put into the control wells. […] are then transferred to the cell plate at a 1:10 dilution (10 μL of sample and media into 90 μL of starve media). The final DMSO concentration will be 1% or lower.
Ten samples are put into wells 2-11 of row A of the NUNC 96 well polypropylene plate. These wells contain straight starve-DMEM. For a 1:10 dilution, one would put 10 μL of drug into 90 μL of media. The rest of the wells (including the controls) will have a DMSO/media mixture. The percentage of DMSO in this mixture is determined by the first dilution factor, in this case 1:10. The DMSO concentration is therefore 10%. An equal amount of drug and media from row A is put into row B, containing DMSO and media. The same amount is then taken out and put into row C. This is repeated for all rows. These are 1:2 dilutions. All wells are then transferred to the cell plate at a 1:10 dilution (10 μL of sample and media into 90 μL of starve-DMEM. The final DMSO concentration will be 1% or lower. […]
After a 2 hour incubation with the drug, add prepared EGF ligand to cells at 50 μL per well, for a final concentration of 50 nM. Positive control wells (8) receive the same amount of EGF. […] Incubate at 37° C. for 10 minutes.
Remove drug, EGF, and DMEM by dumping in sink. Wash cells once with PBS.
Transfer HNTG* to cells, 100 μL per well. Place on ice for 5 minutes. Meanwhile, remove blocking buffer from ELISA plate and wash as described above. With a pipette tip securely fitted to a micropipettor, scrape cells from plate and homogenize cell material by repeatedly aspirating and dispensing the HNTG* lysis buffer. Transfer lysate to a coated, blocked, washed ELISA plate. Alternatively, one may use a Costar transfer cartridge to transfer lysate to the ELISA plate. Incubate, shaking, at room temperature for one hour.
Remove lysate by dumping in sink, then wash as described earlier. Transfer freshly diluted anti-phosphotyrosine (anti-Ptyr) antibody (1:3000 in TEST) to ELISA plate, 100 μL per well. Incubate, shaking, at room temperature, for 30 minutes.
Remove anti-Ptyr antibody by dumping in sink, then wash as described earlier. Transfer freshly diluted BIOSOURCE antibody to ELISA plate, (1:8000 in TEST), 100 μL per well. Incubate, shaking, at room temperature for 30 minutes.
Remove BIOSOURCE antibody by dumping in sink, then wash as described earlier. Transfer freshly prepared ABTS/H2O2 solution to ELISA plate, […]. Incubate 5-10 minutes while shaking. Remove any bubbles and if necessary, stop reaction with the addition of 100 μL of 0.2 M HCl per well.
Read assay on Dynatech MR7000 ELISA reader. Test Filter: […]; Reference Filter: […]. A preferred template for the placement of controls in this experiment is provided below: […]

T2 sequence (P04626 720-987 limits assumed): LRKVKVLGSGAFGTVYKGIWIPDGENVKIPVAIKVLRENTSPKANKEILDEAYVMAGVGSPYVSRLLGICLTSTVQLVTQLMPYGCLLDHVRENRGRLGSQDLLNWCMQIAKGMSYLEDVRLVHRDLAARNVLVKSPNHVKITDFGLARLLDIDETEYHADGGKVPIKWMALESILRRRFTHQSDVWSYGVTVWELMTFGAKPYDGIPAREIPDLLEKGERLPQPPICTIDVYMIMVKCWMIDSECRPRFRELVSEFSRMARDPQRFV
T1 sequence (P09619 33-1106, species assumed): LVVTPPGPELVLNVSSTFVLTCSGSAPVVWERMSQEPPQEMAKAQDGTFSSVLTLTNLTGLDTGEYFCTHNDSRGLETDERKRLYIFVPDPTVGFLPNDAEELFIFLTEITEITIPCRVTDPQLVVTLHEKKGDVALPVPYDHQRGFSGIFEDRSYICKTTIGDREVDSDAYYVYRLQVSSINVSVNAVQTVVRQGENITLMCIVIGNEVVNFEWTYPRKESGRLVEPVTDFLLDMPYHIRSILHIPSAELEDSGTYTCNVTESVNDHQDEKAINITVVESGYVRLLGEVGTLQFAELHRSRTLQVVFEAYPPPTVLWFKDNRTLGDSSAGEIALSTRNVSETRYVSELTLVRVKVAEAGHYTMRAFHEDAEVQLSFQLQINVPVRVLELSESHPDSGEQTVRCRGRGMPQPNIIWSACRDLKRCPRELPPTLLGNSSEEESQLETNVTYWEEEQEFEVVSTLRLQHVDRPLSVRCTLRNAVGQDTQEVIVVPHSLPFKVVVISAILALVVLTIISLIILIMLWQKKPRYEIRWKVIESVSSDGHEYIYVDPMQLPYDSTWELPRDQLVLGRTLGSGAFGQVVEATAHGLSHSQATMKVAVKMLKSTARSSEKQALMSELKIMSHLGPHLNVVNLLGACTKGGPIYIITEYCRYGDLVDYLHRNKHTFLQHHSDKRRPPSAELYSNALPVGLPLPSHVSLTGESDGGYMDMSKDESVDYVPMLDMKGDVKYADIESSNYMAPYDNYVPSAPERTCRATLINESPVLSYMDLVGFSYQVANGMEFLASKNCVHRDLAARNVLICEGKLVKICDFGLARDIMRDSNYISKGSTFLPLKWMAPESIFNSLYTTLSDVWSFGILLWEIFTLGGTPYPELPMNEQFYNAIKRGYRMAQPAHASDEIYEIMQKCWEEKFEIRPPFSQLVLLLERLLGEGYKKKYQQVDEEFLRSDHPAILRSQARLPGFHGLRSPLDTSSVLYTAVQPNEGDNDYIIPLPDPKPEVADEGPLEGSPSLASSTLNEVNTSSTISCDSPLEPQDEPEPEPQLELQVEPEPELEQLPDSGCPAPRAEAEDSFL

Row | IC50 (PDGFR) | IC50 (HER-2) | SMILES
1 | > 20 µM | 370 nM | Cc1c(C(=O)N2CCOCC2)c[nH]c1/C=C1\C(=O)Nc2ncnc(Nc3ccc(F)c(Cl)c3)c21 [Formula 31]
2 | > 20 µM | > 20000 nM | Cc1cc(C(=O)N2CCOCC2)[nH]c1/C=C1\C(=O)N(C)c2ncnc(Nc3ccc(F)c(Cl)c3)c21 [Formula 34]
3 | > 20 µM | > 20000 nM | Cc1cc(C(=O)N2CCN(C)CC2)[nH]c1/C=C1\C(=O)N(C)c2ncnc(Nc3ccc(F)c(Cl)c3)c21 [Formula 36]
4 | > 20 µM | 1070 nM | Cc1cc(C=C2C(=O)Nc3ncnc(Nc4ccc(F)c(Cl)c4)c32)[nH]c1C(=O)N1CCOCC1 [Formula 37]
